Tests used:
DPPH assay = conditions: for IC50: 30 min incubation at room temperature, absorbance 517 nm, n.a. ^c = no protection detected, n.a. ^d = IC50 > 5 mM
Description: The 2,2-diphenyl-1-picrylhydrazyl (DPPH) assay was performed using a previously reported method with a modification. A series of samples consisting of 900 μL of the 0.04 mg/mL methanolic solution of DPPH and different concentrations of the compounds (100 μL) were prepared. Then, the absorbance at 517 nm was measured after a 30 min incubation at room temperature. The half maximal inhibitory concentration (IC50) was used as an indicating measure of the scavenging activity.

[1] = Oxidation inhibition of the o/w emulsion (TBARS); conditions: for Inhibition of Oxidation of o/w Emulsion: determined at 100 µM, oxidation induced with Mohr's salt 5 mM, TBARS, n.a. ^c = no protection detected; for protection against the induced oxidation (in words): o/w emulsion model
Description: The emulsion containing 15 mg of sorbitan sesquioleate, 50 mg of flaxseed oil, and 2 mL of 10 mM Tris-HCl buffer, pH 7.4, was prepared by the method. Determination of the oxidation inhibition of the o/w emulsion was carried out according to a procedure described previously, using 20 μL of the 1:1 (v/v) buffer-diluted emulsion, methanolic solution of each compound (final concentration 100 μM), and ammonium iron(II) sulfate hexahydrate (Mohr′s salt) (5 mM). Thiobarbituric acid reacting substances (TBARS) were determined according to [44].

[2] = tested on: normal human dermal fibroblast (NHDF) cell line; assay: Cell viability assay (MTT) in the NHDF cell line; type: cell-based; conditions: highest concentration
Description: The cytotoxicity test was performed as described in [44] using the NHDF cell line treated with the methanolic solution of the tested compounds to obtain the final concentrations of 12.5, 25, 50, 100, 200, or 250 µM, and incubation for 24 and 48 h. Cell viability was assessed by the MTT method.

Row | SMILES | DPPH scavenging ability (in words) (DPPH assay) | antioxidant activity compared with caffeic acid (in words) [1] | Inhibition of Oxidation of o/w Emulsion [1] | protection against the induced oxidation (in words) [1] | IC50 (DPPH assay) | effect on viability of NHDF cells after 48 h (in words) [2]
1 | CC(=O)/C=C/c1ccccc1O [Compound 6, 4-(2′-hydroxyphenyl)-3(E)-buten-2-one] | no scavenging ability | – | – | – | – | –
2 | COC(=O)/C=C/c1ccc(O)c(O)c1O [Compound 12, 3-(2′,3′,4′-trihydroxyphenyl)-(E)-propenoic acid methyl ester] | – | higher antioxidant activity than caffeic acid | 55.5 ± 2 | highest protection against the induced oxidation | 18.6 µM | –
3 | COC(=O)/C=C/c1ccccc1O [Compound 9, 3-(2.′-Hydroxyphenyl)-(E)-propenoic acid methyl ester] | no scavenging ability | – | 2.6 ± 1.5 | – | – | –
4 | CC(=O)/C=C/c1ccc(O)cc1O [Compound 17, 4-(2′,4′-dihydroxyphenyl)-3(E)-buten-2-one] | – | – | 4.6 ± 1.3 | – | 688 µM | –
5 | COc1cc(/C=C/C(C)=O)ccc1O [Compound 20, 4-(3′-methoxy-4′-hydroxyphenyl)-3(E)-buten-2-one] | – | – | 7.9 ± 2.1 | – | 61.8 µM | this effect after 48 h was not clearly noticeable
6 | COC(=O)/C=C/c1ccc(O)c(OC)c1 [Compound 14, 3-(4′-hydroxy-3-metoxyphenyl)-(E)-propenoic acid methyl ester] | – | – | 14.8 ± 2 | – | 58.9 µM | –
7 | O=C(O)/C=C/c1ccc(O)c(O)c1 [CA, caffeic acid, reference compound] | – | – | 26.1 ± 2.9 | – | 32.2 µM | –
8 | COC(=O)/C=C/c1ccc(O)cc1 [Compound 8, 3-(4′-Hydroxyphenyl)-(E)-propenoic acid methyl ester] | no scavenging ability | – | 22.7 ± 6.4 | – | – | –
9 | CC(=O)/C=C/c1cccc(O)c1 [Compound 15, 4-(3′-hydroxyphenyl)-3(E)-buten-2-one] | no scavenging ability | – | – | – | – | –
10 | CC(=O)/C=C/c1ccc(O)c(O)c1O [Compound 18, 4-(2′,3′,4′-trihydroxyphenyl)-3(E)-buten-2-one] | – | higher antioxidant activity than caffeic acid | 28.6 ±4 | highest protection against the induced oxidation | 16.8 µM | –
11 | COC(=O)/C=C/c1cc(O)c(O)cc1O [Compound 13, 3-(2′,4′,5′-trihydroxyphenyl)-(E)-propenoic acid methyl ester] | – | higher antioxidant activity than caffeic acid | 38.6 ± 2.3 | highest protection against the induced oxidation | 53.3 µM | this effect after 48 h was not clearly noticeable
12 | CC(=O)/C=C/c1ccc(O)cc1 [Compound 16, 4-(4′-hydroxyphenyl)-3(E)-buten-2-one] | no scavenging ability | – | 6.8 ± 4.4 | – | – | –
13 | COC(=O)/C=C/c1ccc(O)cc1O [Compound 11, 3-(2′,4′-dihydroxyphenyl)-(E)-propenoic acid methyl ester] | – | – | 33.7 ± 6.5 | – | 1020 µM | –
14 | COC(=O)/C=C/c1cccc(O)c1 [Compound 10, 3-(3′-Hydroxyphenyl)-(E)-propenoic acid methyl ester] | no scavenging ability | – | 18.4 ± 2.2 | – | – | –

Source: publication PMC6225178 (Molecules : A Journal of Synthetic Chemistry and Natural …, 2018)
